Reference: patent US20110212101A1, “MATERIALS AND METHODS FOR EXPLOITING SYNTHETIC LETHALITY IN MISMATCH REPAIR-DEFICIENT CANCERS” (priority 2007, published 2011)
Where a SMILES comes first, the peptide text is derived from it. The star is where a group is joined. Cbz = O=C(OCc1ccccc1)*

Legend:
POLG = details: cited from earlier work; for inhibition of POLG activity in vitro: extent of inhibition varies widely
[1] = test system: POLB mRNA in MSH2 deficient and proficient cells; assay: POLB mRNA by qRT-PCR after H2O2; format: cell-based, human; details: 100 μM H202, RNA isolated after 15 mins
Protocol: Quantification of RNA expression was measured by real time RT-PCR. Total RNA was extracted from cells with Trizol (Invitrogen) according to manufacturer's instructions. Total RNA from patient biopsies was purified from 10 μm sections using the High Pure RNA Paraffin Kit (Roche Diagnostic Ltd). cDNA was synthesized using Omniscript Reverse Transcriptase System for RT-PCR (Qiagen) with oligo dT as per manufacturer's instructions. Assay-on-Demand primer/probe sets were purchased from Applied Biosystems (Foster City, Calif.). Real-Time qPCR was performed on the […] Fast Real-Time PCR System (Applied Biosystems), with endogenous control β-Actin. Standard curves were calculated for all reactions with serial dilutions of control Hec59+chr2 cells to calculate reaction efficiency. Gene expression was calculated relative to expression of β-Actin endogenous control, and adjusted relative to expression in control Hec59+chr2 cells. Samples were quantified in triplicate.

[2] = test system: Hec59 and Hec59+chr2 cells; assay: Clonogenic assay with compounds; format: cell-based, human; details: folic acid added in concert with methotrexate; Hec59 MSH2 deficient cells; 14 days
Protocol: (§1) Compound libraries were purchased from Prestwick Chemicals (Saffron Walden, Essex, UK). Validation experiments were carried out with Methotrexate (Biomol International L.P.) and Menadione and Partenolide (Prestwick chemicals). Cells were plated in 96-well plates. After 12 hr incubation, cells were exposed to compound or equimolar DMSO and re-treated every 48 hrs. Cell viability was measured six days later using the CellTitre Glo assay (Promega) according to the manufacturer's instructions. Validation of hit compounds was performed by clonogenic assays. Exponentially growing cells were seeded at various densities in six-well plates. Cells were treated with increasing concentrations of the compound. Cell medium was replaced every four days. After ten to fourteen days, cells were fixed in methanol, stained with crystal violet, and counted. The plating efficiencies were calculated as the number of colonies divided by the number of cells plated for each compound treatment. The surviving fraction (SF) for a given sample was calculated as the plating efficiencies for each compound treated cells divided by the plating efficiencies of DMSO treated cells.

[3] = test system: Hec59 and Hec59+chr2 cells; assay: High-throughput compound inhibitor screen, CellTitre Glo viability; format: cell-based, human; details: library of 1120 compounds; viability after six days
Protocol: as §1

[4] = test system: reactive oxygen species (ROS); details: VK3 at 30 μM; leading to apoptosis; cited from earlier work
[5] = test system: Hec59 cells (MSH2 deficient); assay: 8-OHdG ELISA on isolated DNA; format: cell-based, human; details: compound treatment for three days
Protocol: (§2) Genomic DNA was extracted using the Qiamp DNA isolation kit (Qiagen) and digested with nuclease P1. Mitochondrial and nuclear DNA was extracted using the mitochondrial DNA isolation kit (ab65321, Abcam). A commercially available ELISA kit from Cell Biolabs was used to determine levels of 8-OHdG in isolated DNA. The assays were performed according to the manufacturer's instructions. The 8-OHdG standard (0.078-20 ng/ml) or 10 μg DNA from siRNA transfected cells was incubated with a 8-OHdG monoclonal antibody in a microtiter plate precoated with 8-OHdG.
(§3) Addition of […] to replicate samples was followed by measurement of absorbance at 450 nm. Standard curves were calculated for all reactions with serial dilutions of 8-OHdG standard to calculate reaction efficiency. Samples were assayed in triplicate.

[6] = test system: Hec59+chr2 cells (MSH2 proficient); assay: 8-OHdG ELISA on isolated DNA; format: cell-based, human; details: compound treatment for three days
Protocol: as §2, §3

[7] = test system: OGG1 expression in HeLa cells; assay: Western blot for OGG1 expression; format: cell-based, human; details: POLB silenced cells; 50 μM MG132, lysates 18 hours later
Protocol: (§4) Cell pellets were lysed in 20 mmol/L Tris (pH 8), 200 mmol/L NaCl, 1 mmol/L EDTA, 0.5% (v/v) NP40, 10% (v/v) glycerol, and protease inhibitors. Immunoprecipitations were performed by incubating Protein G beads (Sigma), 1-2 mg of precleared cell lysate and anti-POLB antibody (ab3181, Abcam; dilution 1:100) overnight at 4° C. Beads were subsequently washed three times in cold lysis buffer, after which 2× loading buffer was added and the samples were boiled for 5 min before SDS-PAGE. For western blotting, lysates were electrophoresed on Novex precast gels (Invitrogen) and immunoblotted using the following antibodies: anti-MSH2 (Ab-1, Calbiochem), anti-POLB (ab3181, Abcam), anti-MLH1 (ab9144, Abcam), anti-POLG (Novus), anti-PCNA (SC7907, Santa-Cruz), anti-Cytochrome C (Pharmagen) anti-OGG1 (NB100-106, Novus biologicals), anti-CHIP (ab39559, Abcam) and anti-β-tubulin, (T4026, Sigma). This was followed by incubation with anti-IgG-horseradish peroxidase and chemiluminescent detection (SuperSignal West Pico Chemiluminescent Substrate, Pierce). Immunoblotting for (1-tubulin was used as a loading control.

POLB = POLB (Rattus norvegicus, UniProt P06766); details: read-out: IC50 as POLB inhibitor; cited from earlier work
[8] = test system: POLβ expression in Hec59 and Hec59+chr2 cells; assay: Western blot for POLβ expression; format: cell-based, human; details: 72 hours after treatment with methotrexate
Protocol: as §4
Transfected cell pellets were lysed in 20 mmol/L Tris (pH 8), 200 mmol/L NaCl, 1 mmol/LEDTA, 0.5% (v/v) NP40, 10% (v/v) glycerol, and protease inhibitors. […]

HeLa cells = assay: Clonogenic survival with methotrexate after MSH2 siRNA; format: cell-based, human; details: cells transfected with MSH2 siRNA vs siControl; continuous exposure 14 days
Protocol: (§5) For clonogenic assays, exponentially growing cells were seeded at various densities in six-well plates. Cells were transfected with siRNA as before. Cell medium was replaced every four days. After ten to fourteen days, cells were fixed in methanol, stained with crystal violet, and counted. The plating efficiencies were calculated as the number of colonies divided by the number of cells plated for each siRNA transfection. The surviving fraction (SF) for a given sample was calculated as the plating efficiencies for each siRNA transfection divided by the plating efficiencies of siControl siRNA transfected cells. All transfections were carried out in triplicate.
(§6) Compound libraries were purchased from Prestwick Chemicals (Saffron Walden, Essex, UK). […] Cell viability was measured six days later using the CellTitre Glo assay (Promega) according to the manufacturer's instructions. […] After ten to fourteen days, cells were fixed in methanol, stained with crystal violet, and counted. The plating efficiencies were calculated as the number of colonies divided by the number of cells plated for each compound treatment. The surviving fraction (SF) for a given sample was calculated as the plating efficiencies for each compound treated cells divided by the plating efficiencies of DMSO treated cells.

Hec59+chr2 cells = assay: as above; format: cell-based, human; details: cells transfected with MSH2 siRNA vs siControl; continuous exposure 14 days
Protocol: as §5, §6

Nc1ccn([C@H]2CC[C@@H](COP(=O)(O)OP(=O)(O)OP(=O)(O)O)O2)c(=O)n1 [zalcitabine-TP]
inhibition of POLG activity in vitro (POLG): inhibit POLG activity in vitro

Nc1ccn([C@@H]2CS[C@H](COP(=O)(O)OP(=O)(O)OP(=O)(O)O)O2)c(=O)n1 [Lamivudine-TP]
inhibition of POLG activity in vitro (POLG): inhibit POLG activity in vitro

OO [H202]
POLB mRNA levels [1]: induced

Nc1nc2ncc(CNc3ccc(C(=O)N[C@@H](CCC(=O)O)C(=O)O)cc3)nc2c(=O)[nH]1 [folic acid]
rescue of methotrexate lethality [2]: in large part rescues the lethal phenotype

CC1=CC(=O)c2ccccc2C1=O [Menadione, 2-methylnaphthalene-1,4-dione]
selectivity for MSH2 deficient cells in high-throughput screen [3]: show selectivity for MSH2 deficient cells | inhibition of POLG (POLG; VK3 at 30 μM): more than 80% | reactive oxygen species (ROS) [4]: significant increase | 8-OHdG accumulation [5]: increased significantly | 8-OHdG accumulation [6]: did not increase

CC(C)C[C@@H](C=O)NC(=O)[C@H](CC(C)C)NC(=O)[C@H](CC(C)C)NC(=O)OCc1ccccc1 [MG132] (Cbz-Leu-Leu-Leu-aldehyde)
OGG1 expression [7]: restored the expression of OGG1

C/C(=C/CC[C@H](C)[C@@H]1CC[C@]2(C)C3=CC[C@H]4C(C)(C)C(=O)CC[C@]4(C)[C@H]3CC[C@@]12C)C(=O)O [masticadienonic acid]
IC50 (POLB): 8 µM

CN(Cc1cnc2nc(N)nc(N)c2n1)c1ccc(C(=O)N[C@@H](CCC(=O)O)C(=O)O)cc1 [Methotrexate, (S)-2-(4-(((2,4-diaminopteridin-6-yl)methyl)methylamino)benzamido)pentanedioic acid]
selectivity for MSH2 deficient cells in high-throughput screen [3]: show selectivity for MSH2 deficient cells | POLβ expression [8]: reduction of POLβ expression | synthetic lethality with methotrexate (survival) (HeLa cells): synthetically lethal | synthetic lethality with methotrexate (survival) (Hec59+chr2 cells): synthetically lethal | 8-OHdG accumulation [5]: increased significantly | 8-OHdG accumulation [6]: did not increase

Nc1ncnc2c1ncn2CCOCP(=O)(O)OP(=O)(O)OP(=O)(O)O [adefovir-diphosphate]
inhibition of POLG activity in vitro (POLG): inhibit POLG activity in vitro

CC(Cn1cnc2c(N)ncnc21)OCP(=O)(O)OP(=O)(O)OP(=O)(O)O (stereo in doubt) [tenofovir-DP]
inhibition of POLG activity in vitro (POLG): inhibit POLG activity in vitro

Cc1cn([C@H]2C[C@H](N=[N+]=[N-])[C@@H](COP(=O)(O)OP(=O)(O)OP(=O)(O)O)O2)c(=O)[nH]c1=O [zidovudine-TP]
inhibition of POLG activity in vitro (POLG): inhibit POLG activity in vitro
